Data published in US10519099B2, “Cystobactamides” (priority 2014, dated 2019).
Converted amounts (≈) assume the structure as drawn.

Columns and labels:
[1] = tested on: Pseudomonas aeruginosa DSM-46316 (ESBL); assay: MIC microdilution, P. aeruginosa DSM-46316 (ESBL); assay type: cell-based; conditions: larger panel
Method: (§1) Indicator strains used in susceptibility assays were either part of our strain collection or purchased from the German Collection of Microorgansims and Cell Cultures (DSMZ) or from the American Type Culture Collection (ATCC). E. coli strain WT and corresponding E. coli mutants were kindly provided by Prof. Dr. P. Heisig, Pharmaceutical Biology and Microbiology, University of Hamburg. E. coli strains JW0401-1 (WT) and Δtsx were obtained from the CGSC collection.
(§2) MIC values were determined in standardized microdilution assays. Overnight cultures were diluted in the appropriate growth medium to achieve an inoculum of 10^4-10^6 cfu/mL. Yeasts were grown in Myc medium (1% phytone peptone, 1% glucose, 50 mM HEPES, pH 7.0), S. pneumonia and Enterococcus spp. in tryptic soy broth (TSB: 1.7% peptone casein, 0.3% peptone soymeal, 0.25% glucose, 0.5% NaCl, 0.25% K2HPO4; pH 7.3); M. smegmatis in Middlebrook 7H9 medium supplemented with 10% Middlebrook ADC enrichment and 2 ml/I glycerol). All other listed bacteria were grown in Müller-Hinton broth (0.2% beef infusion solids, 1.75% casein hydrolysate, 0.15% starch, pH 7.4). Cystobactamides and reference drugs were added directly to the cultures in sterile 96-well plates as duplicates and serial dilutions were prepared. Microorganisms were grown on a microplate shaker (750 rpm, 30-37° C., 18-48 h), except S. pneumonia, which was grown at non-shaking conditions (37° C., 5% CO2, 18 h). Growth inhibition was assessed by visual inspection and the MIC was defined as the lowest concentration of compound that inhibited visible growth.

E. coli JW0401-1 (WT) = assay: MIC microdilution, E. coli JW0401-1 (WT); assay type: cell-based, Escherichia coli; conditions: Gram-negative set
Method: as §1
as §2, with “Cystobactamides and reference drugs were added directly to the cultures in sterile 96-well plates as duplicates and serial dilutions were prepared. Microorganisms were grown on a microplate shaker (750 rpm, 30-37° C., 18-48 h), except S. pneumonia, which was grown at non-shaking conditions (37° C., 5% CO2, 18 h).” left out

E. coli WT = assay: MIC microdilution, E. coli WT; assay type: cell-based, Escherichia coli
Method: as §1, §2

[2] = tested on: Escherichia coli (TolC-deficient); assay: MIC microdilution, E. coli (TolC-deficient); assay type: cell-based; conditions: larger panel
Method: as §1
as §2, with “Cystobactamides and reference drugs were added directly to the cultures in sterile 96-well plates as duplicates and serial dilutions were prepared. Microorganisms were grown on a microplate shaker (750 rpm, 30-37° C., 18-48 h), except S. pneumonia, which was grown at non-shaking conditions (37° C., 5% CO2, 18 h).” left out

P. aeruginosa gyrase = biological target: T1, P. aeruginosa gyrase (Pseudomonas aeruginosa, UniProt P48372+Q9I7C2); assay: P. aeruginosa gyrase DNA supercoiling assay; assay type: biochemical; conditions: read-out: IC50 Pa gyrase (sc)
T1 construct: purchased Inspiralis, Norwich, UK
Method: (§3) To test the anti-gyrase activity of cystobactamides, commercial E. coli and P. aeruginosa gyrase supercoiling kits (Inspiralis, Norwich, UK) were used. For standard reactions 0.5 μg relaxed plasmid were mixed with 1 unit gyrase in 1× reaction buffer (see kit manual) and incubated for 30 min at 37° C. The reactions were quenched by the addition of DNA gel loading buffer containing 10% (w/v) SDS. The samples were separated on 1% (w/v) agarose gels and DNA was visualized using EtBr. All natural products stock solutions and dilutions were prepared in 100% DMSO and added to the supercoiling reactions giving a final DMSO concentration of 2% (v/v).

[3] = tested on: Proteus vulgaris DSM-2140; assay: MIC microdilution, P. vulgaris DSM-2140; assay type: cell-based
Method: as §1, §2

[4] = tested on: Enterococcus faecium DSM-20477; assay: MIC microdilution, Enterococcus faecium DSM-20477; assay type: cell-based; conditions: larger panel
Method: as §1, §2

[5] = tested on: CHO-K1 (Chinese hamster ovary cell line); assay: Cytotoxicity (MTT), CHO-K1 cell line; assay type: cell-based; conditions: 5 d incubation
Method: CHO-K1 cells were obtained from the DSMZ and were cultured under conditions recommended by the depositor. Cells were seeded at 6×10^3 cells/well of 96-well plates in 180 μl complete medium and treated with compounds in serial dilution after 2 h of equilibration. Each sample was tested in duplicate as well as the internal DMSO control. After 5 d incubation, 20 μl of 5 mg/ml MTT (thiazolyl blue tetrazolium bromide) in PBS was added per well and it was further incubated for 2 h at 37° C. The medium was then discarded and cells were washed with 100 μl PBS before adding 100 μl 2-propanol/10 N HCl (250:1) in order to dissolve formazan granules. The absorbance at 570 nm was measured using a microplate reader (Tecan Infinite M200Pro), and cell viability was expressed as percentage relative to the respective […] control.

[6] = tested on: E. coli WT-3 [gyrA(S83L, D87G)]; assay: MIC microdilution, E. coli WT-3 [gyrA(S83L, D87G)]; assay type: cell-based, Escherichia coli
Method: as §1, §2

[7] = tested on: E. coli DSM-26863 (tolC3); assay: MIC microdilution, E. coli DSM-26863 (tolC3); assay type: cell-based, Escherichia coli
Method: as §1, §2

[8] = tested on: Pseudomonas aeruginosa DSM-24599; assay: MIC microdilution, P. aeruginosa DSM-24599; assay type: cell-based; conditions: larger panel
Method: as §1, §2

[9] = tested on: Citrobacter freundii DSM-30039; assay: MIC microdilution, C. freundii DSM-30039; assay type: cell-based
Method: as §1, §2

[10] = tested on: E. coli WT-III [marRΔ74bp]; assay: MIC microdilution, E. coli WT-III [marRΔ74bp]; assay type: cell-based, Escherichia coli
Method: as §1, §2

E. coli Δtsx = assay: MIC microdilution, E. coli Δtsx; assay type: cell-based, Escherichia coli; conditions: Gram-negative set
Method: as §1
as §2, with “Cystobactamides and reference drugs were added directly to the cultures in sterile 96-well plates as duplicates and serial dilutions were prepared. Microorganisms were grown on a microplate shaker (750 rpm, 30-37° C., 18-48 h), except S. pneumonia, which was grown at non-shaking conditions (37° C., 5% CO2, 18 h).” left out

[11] = tested on: Staphylococcus epidermidis DSM-28765; assay: MIC microdilution, Staphylococcus epidermidis DSM-28765; assay type: cell-based; conditions: larger panel
Method: as §1, §2

E. coli DSM-1116 = assay: MIC microdilution, E. coli DSM-1116; assay type: cell-based, Escherichia coli
Method: as §1, §2

[12] = tested on: Serratia marcescens DSM-30121; assay: MIC microdilution, Serratia marcescens DSM-30121; assay type: cell-based; conditions: larger panel
Method: as §1, §2

[13] = tested on: Enterobacter cloacae DSM-30054; assay: MIC microdilution, Enterobacter cloacae DSM-30054; assay type: cell-based; conditions: larger panel
Method: Dr. P. Heisig, Pharmaceutical Biology and Microbiology, University of Hamburg.
Overnight cultures were diluted in the appropriate growth medium to achieve an inoculum of 10^4-10^6 cfu/mL. […] Cystobactamides and reference drugs were added directly to the cultures in sterile 96-well plates as duplicates and serial dilutions were prepared. Microorganisms were grown on a microplate shaker (750 rpm, 30-37° C., 18-48 h), except S. pneumonia, which was grown at non-shaking conditions (37° C., 5% CO2, 18 h). Growth inhibition was assessed by visual inspection and the MIC was defined as the lowest concentration of compound that inhibited visible growth.

[14] = tested on: Acinetobacter baumannii DSM-30008; assay: MIC microdilution, A. baumannii DSM-30008; assay type: cell-based
Method: as §1, §2

[15] = tested on: P. aeruginosa DSM-24600 (ESBL); assay: MIC microdilution, P. aeruginosa DSM-24600 (ESBL); assay type: cell-based, Pseudomonas aeruginosa
Method: as §1, §2

[16] = tested on: Pseudomonas aeruginosa PA14; assay: MIC microdilution, P. aeruginosa PA14; assay type: cell-based; conditions: larger panel
Method: as §1, §2

E. coli gyrase = biological target: T2, E. coli gyrase (Escherichia coli, UniProt P0AES4+P0AES6); assay: E. coli gyrase DNA supercoiling assay; assay type: biochemical; conditions: read-out: IC50 Ec gyrase (sc)
T2 construct: purchased Inspiralis, Norwich, UK
Method: as §3

[17] = tested on: Pseudomonas aeruginosa ATCC27853; assay: MIC microdilution, P. aeruginosa ATCC27853; assay type: cell-based; conditions: larger panel
Method: as §1, §2

**Q.** Which “MIC Pseudomonas aeruginosa DSM-46316 (ESBL)” value [1] does the source give for CO[C@@H](C(N)=O)[C@H](NC(=O)c1ccc(NC(=O)c2ccc([N+](=O)[O-])cc2)cc1)C(=O)Nc1ccc(C(=O)Nc2ccc(C(=O)Nc3ccc(C(=O)O)cc3)c(O)c2OC(C)C)cc1 [Cys 861-2] here?
**A.** 2 µg/mL (≈ 2.32 µM)

**Q.** What about the “MIC E. coli JW0401-1 (WT)” value (E. coli JW0401-1 (WT)) of the same compound?
**A.** 0.25 µg/mL (≈ 0.29 µM)

**Q.** What about the “MIC E. coli WT” value (E. coli WT; Gram-negative set) of the same compound?
**A.** 0.13 µg/mL (≈ 0.151 µM)

**Q.** What about the “MIC Escherichia coli WT” value (E. coli WT; larger panel) of the same compound?
**A.** 0.125 µg/mL (≈ 0.145 µM)

**Q.** And the “MIC Escherichia coli (TolC-deficient)” value [2]?
**A.** 0.06 µg/mL (≈ 0.0696 µM)

**Q.** And the IC50 (P. aeruginosa gyrase)?
**A.** 180 nM

**Q.** What about the “MIC P. vulgaris DSM-2140” value ([3]; Gram-negative set) of the same compound?
**A.** 0.25 µg/mL (≈ 0.29 µM)

**Q.** What about the “MIC Proteus vulgaris DSM-2140” value ([3]; larger panel) of the same compound?
**A.** 0.25 µg/mL (≈ 0.29 µM)

**Q.** And the “MIC Enterococcus faecium DSM-20477” value [4]?
**A.** 0.5 µg/mL (≈ 0.58 µM)

**Q.** What about the IC50 [5] of the same compound?
**A.** > 100000 nM

**Q.** And the “MIC E. coli WT-3 [gyrA(S83L, D87G)]” value ([6]; Gram-negative set)?
**A.** 0.5 µg/mL (≈ 0.58 µM)

**Q.** What about the “MIC Escherichia coli WT-3 [gyrA(S83L, D87G)]” value ([6]; larger panel) of the same compound?
**A.** 0.5 µg/mL (≈ 0.58 µM)

**Q.** And the “MIC E. coli DSM-26863 (tolC3)” value ([7]; Gram-negative set)?
**A.** 0.06 µg/mL (≈ 0.0696 µM)

**Q.** And the “MIC Escherichia coli DSM-26863 (tolC3)” value ([7]; larger panel)?
**A.** 0.4 µg/mL (≈ 0.464 µM)

**Q.** What about the “MIC Pseudomonas aeruginosa DSM-24599” value [8] of the same compound?
**A.** 2 µg/mL (≈ 2.32 µM)

**Q.** What about the “MIC C. freundii DSM-30039” value ([9]; Gram-negative set) of the same compound?
**A.** 0.06 µg/mL (≈ 0.0696 µM)

**Q.** What about the “MIC Citrobacter freundii DSM-30039” value ([9]; larger panel) of the same compound?
**A.** 0.06 µg/mL (≈ 0.0696 µM)

**Q.** What about the “MIC E. coli WT-III [marRΔ74bp]” value ([10]; Gram-negative set) of the same compound?
**A.** 0.5 µg/mL (≈ 0.58 µM)

**Q.** And the “MIC Escherichia coli WTIII (marRΔ74bp)” value ([10]; larger panel)?
**A.** 0.5 µg/mL (≈ 0.58 µM)

**Q.** What about the “MIC E. coli Δtsx” value (E. coli Δtsx) of the same compound?
**A.** 0.25 µg/mL (≈ 0.29 µM)

**Q.** What about the “MIC Staphylococcus epidermidis DSM-28765” value [11] of the same compound?
**A.** 0.5 µg/mL (≈ 0.58 µM)

**Q.** What about the “MIC E. coli DSM-1116” value (E. coli DSM-1116; Gram-negative set) of the same compound?
**A.** 0.13 µg/mL (≈ 0.151 µM)

**Q.** What about the “MIC Escherichia coli DSM-1116” value (E. coli DSM-1116; larger panel) of the same compound?
**A.** 0.4 µg/mL (≈ 0.464 µM)

**Q.** And the “MIC Serratia marcescens DSM-30121” value [12]?
**A.** 64 µg/mL (≈ 74.3 µM)

**Q.** What about the “MIC Enterobacter cloacae DSM-30054” value [13] of the same compound?
**A.** 64 µg/mL (≈ 74.3 µM)

**Q.** What about the “MIC A. baumannii DSM-30008” value ([14]; Gram-negative set) of the same compound?
**A.** 0.5 µg/mL (≈ 0.58 µM)

**Q.** What about the “MIC Acinetobacter baumannii DSM-30008” value ([14]; larger panel) of the same compound?
**A.** 0.5 µg/mL (≈ 0.58 µM)

**Q.** What about the “MIC P. aeruginosa DSM-24600 (ESBL)” value ([15]; Gram-negative set) of the same compound?
**A.** 1 µg/mL (≈ 1.16 µM)

**Q.** And the “MIC Pseudomonas aeruginosa DSM-24600 (ESBL)” value ([15]; larger panel)?
**A.** 1 µg/mL (≈ 1.16 µM)

**Q.** What about the “MIC Pseudomonas aeruginosa PA14” value [16] of the same compound?
**A.** 2 µg/mL (≈ 2.32 µM)

**Q.** What about the IC50 (E. coli gyrase) of the same compound?
**A.** 280 nM

**Q.** And the “genotoxic effect, micronucleus formation” value (CHO-K1 cell line)?
**A.** No detectable genotoxic effect

**Q.** And the “MIC Pseudomonas aeruginosa ATCC27853” value [17]?
**A.** 4 µg/mL (≈ 4.64 µM)
